# Experiments:
# MMP-2 = assay: Immunoblotting, MMP-2 expression in GL261; assay type: cell-based, mouse; conditions: GL261, 10 µM, 48 h
# Experimental: (§1) GL261 cell was seeded at 2.5 × 10^4 cells per well in 24-well plates with culture medium supplemented with 10% FBS. After 24 h of incubation, the medium was changed to DMEM containing 10% FBS and 0.1%DMSO PBS, 300 μM temozolomide, 10 μM astaxanthin, or 10 μM adonixanthin was added for 6 and 48 h. Cells were lysed in a special buffer (RIPA buffer R0278; Sigma-Aldrich, St. Louis, MO, USA) with a protease inhibitor cocktail (Sigma-Aldrich), phosphatase inhibitor cocktails 2 and 3 (Sigma-Aldrich), and sample buffer (Wako, Osaka, Japan). The protein concentration was determined by comparison with a known concentration of bovine serum albumin using the BCA Protein Assay Kit (Thermo Fisher Scientific). The amount of total protein was 2 μg. […] The band intensity was […] using an Immuno Star LD (Wako). Band intensity was measured using an LAS-4000 UV mini Luminescent Image Analyzer (Fujifilm, Tokyo Japan) and Multi Gauge Version 3.0 (Fujifilm). The phosphorylation of ERK1/2, Akt, and p38 MAPK was measured by normalizing against total ERK1/2, total Akt, and total p38 MAPK. […]
# GL261 cells = assay: Wound healing (cell migration) assay in GL261; assay type: cell-based, mouse; conditions: GL261, 10 µM, 48 h
# Experimental: (§2) The cell migration assay was conducted as previously described. GL261 cells and U251 cells (2.0 × 10^4 cells per well) were plated in a 12-well plate (BD Biosciences, Tokyo, Japan) with culture medium supplemented with 10% FBS. After 24 h of incubation, the medium was changed to DMEM containing 1% FBS. After 6 h, wounds were scratched by a P1000 pipette tip and washed with phosphate-buffered saline (PBS) to eliminate cell debris. Then, fresh medium was added with 10 µM astaxanthin or adonixanthin. Pictures were taken at 48 h and these scratched areas were measured using an All-in-One Fluorescence Microscope (BZ-X710; Keyence, Osaka, Japan). The cell migration rate was measured the area of the wound before migration (S0) and after migration (S1) and calculated […]. The control group was then standardized to be 100%. Wound widths at 0 h were created within 1 to 1.5 mm and data were excluded if they were not suitable for that width.
# U251MG cells = assay: Wound healing (cell migration) assay in U251MG; assay type: cell-based, human; conditions: 10 µM, 48 h
# Experimental: as §2
# ERK1/2 = assay: Immunoblotting, phosphorylation of ERK1/2 in GL261; assay type: cell-based, mouse; conditions: GL261, 10 µM, 6 h post-treatment
# Experimental: as §1
# [1] = system: GL261 cells (intracranial injection); assay: Murine orthotopic glioblastoma model; assay type: in vivo, mouse; conditions: oral 10 and 30 mg/kg for 10 days, 2 weeks after GL261 cell injection
# Experimental: Murine glioblastoma cell (GL261) transplantation was performed as previously described. Briefly, mice received an intracranial injection of 1 × 10^5 cells in 2 µL of PBS using a Hamilton microliter syringe at the following coordinates: 1 mm anterior, 2 mm lateral (left of middle) to bregma, at a depth of 3 mm from the dural surface. This protocol was completed using a stereotactic frame. In the experiment of the murine orthotopic glioblastoma model, oral administration of each astaxanthin (10 and 30 mg/kg) and adonixanthin (10 and 30 mg/kg) was initiated 3 days after intracranial injection of GL261 cells and was continued for 10 days. In the experiment of the brain tissue absorption with oral astaxanthin or adonixanthin, after one week of adaptation, ICR mice were randomly divided into the following three groups: control group, astaxanthin group (50 mg/kg), and adonixanthin group (50 mg/kg). Mice were orally administered each reagent suspended in olive oil (5 mL/kg) by the daily single dose for 10 days. The control group was treated by olive oil alone (5 mL/kg). Mice were euthanized and […] perfused with cold saline for 2 min at room temperature. […] Pictures were taken using an All-in-One Fluorescence Microscope (BZ-X710; Keyence, Osaka, Japan). We assessed the maximum cross-sectional area of the tumour and tumour volume as described previously.
SMILES,MMP-2 expression (MMP-2),suppression of cell migration (GL261 cells) [%],suppression of cell migration (U251MG cells) [%],phosphorylation of ERK1/2 (ERK1/2),tumour enlargement (tumour area and volume) [1]
"CC1=C(/C=C/C(C)=C/C=C/C(C)=C/C=C/C=C(C)/C=C/C=C(C)/C=C/C2=C(C)C(=O)[C@@H](O)CC2(C)C)C(C)(C)C[C@H](O)C1=O [Astaxanthin, astaxanthin]",decreased,8.84 ± 2.09,21.15 ± 1.84,decreased,significantly suppressed tumour enlargement
"CC1=C(/C=C/C(C)=C/C=C/C(C)=C/C=C/C=C(C)/C=C/C=C(C)/C=C/C2=C(C)C(=O)[C@@H](O)CC2(C)C)C(C)(C)C[C@H](O)C1 [Adonixanthin, adonixanthin]",decreased,13.74 ± 4.01,26.32 ± 5.14,decreased,significantly suppressed tumour enlargement
